# Reference: patent US20090148850A1, “Methods for identifying modulators of P2RY14” (priority 2007, published 2009)
# Assays:
# mouse P2RY14 = target: T1, mouse P2RY14 (Mus musculus, UniProt Q9ESG6); test: FLIPR whole cell Ca2+ agonist assay, HEK cells expressing mouse P2RY14 and Gqi5; assay type: cell-based
# T1 construct: expressed in transfected cells
# T1 sequence (Q9ESG6 1-338): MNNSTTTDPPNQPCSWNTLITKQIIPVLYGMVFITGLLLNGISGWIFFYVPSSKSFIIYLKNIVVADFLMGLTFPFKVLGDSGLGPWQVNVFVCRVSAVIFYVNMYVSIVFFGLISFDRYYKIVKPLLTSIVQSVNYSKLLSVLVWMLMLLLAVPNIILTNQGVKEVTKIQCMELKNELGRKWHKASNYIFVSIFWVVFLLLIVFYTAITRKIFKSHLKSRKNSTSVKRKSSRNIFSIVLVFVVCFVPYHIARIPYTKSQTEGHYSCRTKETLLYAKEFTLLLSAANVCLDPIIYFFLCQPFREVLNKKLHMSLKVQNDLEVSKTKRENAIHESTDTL
# Source text: (§1) Stable HEK clonal cell lines expressing P2RY14 and the chimeric G protein Gqi5 were constructed. The chimeric Gqi5 forces the coupling of P2RY14 through the Gq (calcium) pathway and allows for monitoring of calcium signaling using a calcium binding fluorescent dye and a FLIPR (fluorometric imaging plate reader, MDS Sciex). Vector pCEP4 comprising the chimeric Gqi5 was obtained from Molecular Devices, Sunnyvale, Calif. (Cat. No. RD-PGQI5).
# The nucleic acid encoding the mouse P2RY14 was under the control of the CMV promoter.
# (§2) Cells were grown in DMEM medium containing 25 mM HEPES, pH 7.4 and 10% FBS, 50 units/ml penicillin/50 μg/ml streptomycin, 2 mM glutamine and 1 mM sodium pyruvate at 37° C. in humidified air containing 5% CO2. Two days post-transfection, cells were grown under selection in the DMEM medium as indicated above and supplemented with 200 μg/ml Hygromycin B and 250 μg/ml geneticin.
# (§3) Cells were incubated overnight at 37° C. and 5% CO2 to form a monolayer. On the following day, 30 μl of fluorescent no-wash dye was added to the cell monolayer and the plate was incubated for 60 minutes at 37° C., 5% CO2.
# (§4) For agonist assays, 6.12 μl of 10× agonist solution was added to the cell/dye incubation and Ca^2+ signaling was monitored by FLIPR. For antagonist assays, 250 nl of compound in 100% DMSO was added to cell/dye mixture; following a 20 minute incubation at room temperature, 6.12 μl of 10× agonist solution at EC80 in HBSS containing 20 mM Hepes was added to cells and Ca^2+ signaling was monitored by FLIPR. Quantitation of the % stimulation or inhibition of Ca^2+ signaling by agonist or antagonist, respectively, was calculated using the Max-Min fluorescent signal detected.
# [1] = tested on: simian (chimpanzee) P2RY14; test: CellKey System live cell functional assay, simian P2RY14; assay type: cell-based; conditions: HEK cells expressing simian P2RY14 and Gqi5
# Procedure: (§5) The Cellkey System™ (MDS Sciex), a novel, live cell, label-free, real-time technology, was used to examine P2RY14 activation following agonist stimulation. The CellKey System™ is based on cellular dielectric spectroscopy (CDS) and monitors changes in impedance of the applied electrical current through the cell monolayer upon receptor activation.
# (§6) On the following day, growth medium was removed from the cell monolayer and replaced with 135 μl of HBSS pH 7.4 containing 20 mM Hepes for a 30 minutes pre-incubation period at room temperature. Baseline measurements were made for 5 minutes at 28° C. prior to ligand addition. For agonist assays, 15 μl of 10× agonist diluted in HBSS pH 7.4 containing 20 mM HEPES was added to the cell monolayer simultaneously using the 96 multichannel head from the CellKey™ System. Cellular response was monitored for 10 minutes to assess cellular response after ligand addition.
# [2] = tested on: HEK cells not expressing P2RY14; test: FLIPR Ca2+ release in HEK cells not expressing P2RY14 (specificity); assay type: cell-based
# P2RY14 [3] = target: T2, P2RY14 (Homo sapiens, UniProt Q15391); test: FLIPR whole cell Ca2+ agonist assay, HEK cells expressing human P2RY14 and Gqi5; assay type: cell-based; design: expressed in transfected cells; conditions: HEK cells expressing human P2RY14 and Gqi5, FLIPR
# T2 sequence (Q15391 1-338): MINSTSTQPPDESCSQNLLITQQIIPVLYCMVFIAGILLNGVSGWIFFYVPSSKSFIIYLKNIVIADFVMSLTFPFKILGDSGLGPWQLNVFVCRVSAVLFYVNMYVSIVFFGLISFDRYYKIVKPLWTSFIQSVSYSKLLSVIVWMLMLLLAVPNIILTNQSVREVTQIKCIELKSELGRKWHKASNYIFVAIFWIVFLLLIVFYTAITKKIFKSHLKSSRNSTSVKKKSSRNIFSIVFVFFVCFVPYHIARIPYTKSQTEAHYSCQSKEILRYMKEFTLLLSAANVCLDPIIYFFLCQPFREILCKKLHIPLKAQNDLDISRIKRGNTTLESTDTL
# Source text: as §1
# The human P2RY14 was PCR amplified from the I.M.A.G.E. clone obtained from Invitrogen, Carlsbad, Calif. […] The codon encoding glutamate at position 54 in the wild-type human P2RY14 was changed to code for lysine. […] The PCR reaction was done in two parts. In the first part, the reaction was 5 cycles at 94° C. for 30 seconds, 65° C. for 30 seconds, and 72° C. for 90 seconds. In the second part, the reaction was 25 cycles at 94° C. for 30 seconds, 70° C. for 30 seconds, 72° C. for 90 seconds. The last cycle was followed by 7 minutes at 72° C. The PCR amplified human P2RY14 was digested with KpnI and NotI and cloned into a pcDNA3.1 (+) vector previously digested with KpnI and NotI to place the DNA fragment in the proper orientation downstream of the CMV promoter. The nucleic acid encoding the human P2RY14 was under the control of the CMV promoter.
# as §2, §3, §4
# P2RY14 [4] = target: T2, P2RY14; test: CellKey System live cell functional assay, human P2RY14; assay type: cell-based; design: expressed in transfected cells; conditions: HEK cells expressing human P2RY14 and Gqi5
# Procedure: as §5, §6
# P2RY14 [5] = target: T2, P2RY14; design: host or cells: yeast and HEK-293 cells (Chambers et al., J. Biol. Chem. 275: 10767-10771 (2000)); conditions: yeast and mammalian cells, Chambers et al. 2000; cited from earlier work
smiles,measurement,setting,value
O=c1ccn([C@@H]2O[C@H](COP(=O)(O)O)[C@@H](O)[C@H]2O)c(=O)[nH]1 [UMP],activation of P2RY14 (Ca2+ signaling),mouse P2RY14,activated
same,"P2RY14 signaling (impedance, CellKey)",[1],mediated signaling
same,Ca2+ release in cells not expressing P2RY14,[2],do not stimulate Ca^2+ release
same,activation of P2RY14 (Ca2+ signaling),P2RY14 [3],activated
same,"P2RY14 signaling (impedance, CellKey)",P2RY14 [4],mediated signaling
same,activation of P2RY14,P2RY14 [5],unable to activate
